Patent US8501713B2, “Drug combinations for the treatment of duchenne muscular dystrophy” (Summit Corporation PLC, priority 2007, dated 2013)

Test system: Utrophin A promoter linked to a luciferase reporter gene
Experiment: Luciferase reporter assay (murine H2K cells)
Assay type: cell-based
Conditions: for activity at 10 µM: Mus musculus, H2K mdx, luciferase level relative to control, H2K/mdx/Utro A reporter cells, compound 10 μM final concentration, read-out: Activity; for Activity: luciferase reporter assay in murine H2K cells, classified relative to control
How it was run: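 Compound at 10 μM final was applied for 48 hrs to plated H2K mdx myoblasts (33° C, 10% CO2, interferon-containing medium) bearing a luciferase gene under the utrophin A promoter. Luminescence from lysed cells served as read-out.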

Compound | activity at 10 µM [%] | Activity
COc1ccc(-c2nc3cc(NC(=O)c4ccco4)ccc3o2)cc1 [Example 140, N-(2-(4-methoxyphenyl)benzo[d]oxazol-5-yl)furan-2-carboxamide] | < 200 | –
Nc1ccc2oc(SCc3ccc(Cl)cc3)nc2c1 [Example 380, 2-(4-chlorobenzylthio)benzo[d]oxazol-5-amine] | < 200 | –
Cc1ccc(-c2nc3cc(NC(=O)C(C)C)ccc3s2)cc1 [Example 217, N-(2-p-tolylbenzo[d]thiazol-5-yl)isobutyramide] | > 401 | –
CC(C)C(=O)Nc1ccc2oc(-c3cccc(C(F)(F)F)c3Cl)nc2c1 [Example 368, N-(2-(2-chloro-3-(trifluoromethyl)phenyl)benzo[d]oxazol-5-yl)isobutyramide] | < 200 | –
Clc1cccc(-c2nc3ccccc3[nH]2)c1 [Example 514] | – | + (Up to 200% relative to control)
O=C(O)c1ccc2oc(-c3ccc4ccccc4c3)nc2c1 [Example 449, 2-(Naphthalen-2-yl)benzo[d]oxazole-5-carboxylic acid] | > 401 | –
CCS(=O)(=O)c1ccc2oc(-c3ccc(C)s3)nc2c1 [Example 418, 5-(ethylsulfonyl)-2-(5-methylthiophen-2-yl)benzo[d]oxazole] | > 401 | –
O=C(c1ccccc1)c1ccc2nc(-c3ccccc3)[nH]c2c1 [Example 5, phenyl(2-phenyl-1H-benzo[d]imidazol-6-yl)methanone] | < 200 | –
CCc1ccc2oc(-c3cccc(N)c3)nc2c1 [Example 502] | – | ++ (Between 201% and 300% relative to control)
CCN(CC)c1ccc(-c2nc3cc(NC(=O)c4ccccc4)ccc3o2)cc1 [Example 62, N-(2-(4-(diethylamino)phenyl)benzo[d]oxazol-5-yl)benzamide] | < 200 | –
COc1cccc(-c2nc3ccccc3[nH]2)c1 [Example 600] | – | ++ (Between 201% and 300% relative to control)
CC(O)c1ccc2oc(-c3ccc(Cl)c(Cl)c3)nc2c1 (centres unmarked) [Example 456, 2-(3′,4′-Dichlorophenyl)-5-(1′-hydroxyethyl)-benzoxazole] | > 401 | –
Cc1cc2nc(-c3cccc(NC(=O)c4ccco4)c3)oc2cc1C [Example 623] | – | ++++ (Above 401% relative to control)
CCCC(=O)Nc1ccc2oc(-c3cccnc3)nc2c1 [Example 54, N-(2-(pyridin-3-yl)benzo[d]oxazol-5-yl)butyramide] | < 200 | –
CCN(CC)c1ccc(-c2nc3cc(NC(=O)c4ccc(-c5ccccc5)cc4)ccc3o2)cc1 [Example 72, N-(2-(4-(diethylamino)phenyl)benzo[d]oxazol-5-yl)biphenyl-4-carboxamide] | < 200 | –
O=C(Nc1ccc(-c2nc3ccc(Cl)cc3o2)cc1)c1cccs1 [Example 334, N-(4-(6-chlorobenzo[d]oxazol-2-yl)phenyl)thiophene-2-carboxamide] | < 200 | –
Cn1c(-c2ccc(N)cc2)nc2cc(N)ccc21 [Example 490] | – | + (Up to 200% relative to control)
Cc1ccc2oc(-c3cccs3)nc2c1 [Example 612] | – | ++ (Between 201% and 300% relative to control)
Cc1ccc(-c2nc3cc(NC(=O)C(C)C)ccc3[nH]2)cc1 [Example 175, N-(2-p-tolyl-1H-benzo[d]imidazol-5-yl)isobutyramide] | < 200 | –
CS(=O)(=O)c1ccc2oc(-c3ccc(Cl)cc3)nc2c1 [Example 400, 2-(4-chlorophenyl)-5-(methylsulfonyl)benzo[d]oxazole] | 201 to 300 | –
C[C@H](N)C(=O)Nc1ccc2oc(-c3ccc(Cl)cc3)nc2c1 [Example 272, (S)-2-amino-N-(2-(4-chlorophenyl)benzo[d]oxazol-5-yl)propanamide] | 301 to 400 | –
Clc1ccc(OCc2nc3ccccc3[nH]2)cc1 [Example 495] | – | + (Up to 200% relative to control)
Nc1cccc(-c2nc3ccccc3s2)c1 [Example 602] | – | +++ (Between 301% and 400% relative to control)
